Source: US11447504B2, “Macrocyclic chlorine substituted indole derivatives” (Bayer Aktiengesellschaft, priority 2017, dated 2022)
Where a name gives a salt, the structure may show the parent alone. Read-outs that look alike come from different tables or passages of the source.

Legend:
BCL-XL = BCL-XL (Homo sapiens (Human), UniProt Q07817); assay: Protein-protein interaction assay BCL-XL/Bad BH3 peptide (BCL-XL Assay, TR-FRET); type: binding; settings: read-out: BCL-XL Assay IC50 (median)
Protocol: Assay 2 Protein-Protein Interaction Assay: BCL-XL/Bad BH3 Peptide (BCL-XL Assay)
The dose-dependent inhibition by the compounds described in this invention of the interaction between BCL-XL and the BH3 domain of Bad (both human) was determined using a steady state binding competition assay with time-resolved fluorescence energy transfer (TR-FRET) readout.
(§1) For that, 100-fold concentrated DMSO solutions were prepared by serial dilutions (1:3.4) of a 2 mM stock solution in a clear, 384-well microtiter plate (Greiner Bio-One, Frickenhausen, Germany). From there, 50 nl were transferred in a dark test plate (Greiner Bio-One, Frickenhausen, Germany). […] This was followed by a 10-minute incubation step at 22° C. for pre-equilibration of the putative complex between His-BCL-XL and the compounds.
The mixture was incubated in the dark for one hour at 22° C. and then overnight at 4° C. The formation of BCL-XL/Bad complexes was determined by measuring the resonance energy transfer of the anti-His- Eu-cryptate antibody to the streptavidin-XL665 present in the reaction.
(§2) The resulting data (ratio) were normalized, taking 0% inhibition as the mean value of control measurements (usually 32 data points) where all reagents were included. In this case 50 nl DMSO were used instead of compounds. […] IC50 values were determined by regression analysis based on a 4 parameter equation (minimum, maximum, IC50, Hill; Y=Max+(Min−Max)/(1+(X/IC50)^Hill) using the Screener Software (Genedata).

SUDHL10 [1] = assay: Induction of cytotoxicity (Assay 6), SUDHL10; settings: read-out: Cytotox SUDHL10 IC50 (median); SUDHL10 cells, 5 hours, CellTiter-Glo
Protocol: (§4) Assay 6 Induction of Cytotoxicity Upon Treatment of Cells with Selected Compounds
(§5) Therefore, cytotoxicity assays were run in parallel in SUDHL5 and SUDHL10 cells.
(§6) The different cell lines were plated in culture medium (RPMI 1640 [GIBCO #22400-089]supplemented with 10% Fetal Bovine Serum) at a density of 3,300 cells in 30 μL/well in a sterile, solid black, flat bottom, polystyrene, TC-treated 384-well microplate (Corning #3571) using Multidrop Combi Reagent Dispenser. As a control, medium without cells was also added to the plate. Cells were incubated in a humidified incubator at 37° C. overnight. […] Rim wells were excluded. The cells were incubated for 5 hours in a humidified incubator at 37° C. After this incubation, 30 μL of CellTiter-Glo® Luminescent Cell Viability reagent (Promega, G7573) was added to each well using the Multidrop Combi Reagent Dispenser, followed by 15 minutes incubation on a shaker at room temperature. Finally, luminescence was read at 0.1 ms, with a gain of 3000 using the PHERAstar FS microplate reader (BMG Labtech).

AMO-1 = assay: Antiproliferation assay 7, AMO-1; type: cell-based; settings: AMO-1 cells, CellTiter-Glo, read-out: Antiproli AMO-1 IC50 median
Method in brief: (§3)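 Proliferation over 72 h at 37° C was assessed by luminescent cell viability reagent, referenced to a day 0 plate.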

SUDHL5 [2] = assay: Induction of caspase-3/7 activity (Assay 4), SUDHL5; type: cell-based; settings: SUDHL5 cells
Method in brief: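 DLBCL cells treated with compounds for 3 hours at 37° C. Caspase-3/7 activity measured by Caspase-Glo 3/7 luminescence, with medium-only background subtracted.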

MCL-1 [3] = target: T1, MCL-1 (Homo sapiens (Human), UniProt Q07820, K194A/K197A/R201A); assay: Protein-compound interaction assay (SPR assay 8); type: binding; settings: immobilized MBP-MCL-1, 25° C.; for Kd: read-out: KD (geo mean)
T1 sequence (Q07820 whole entry K194A/K197A/R201A, looked up): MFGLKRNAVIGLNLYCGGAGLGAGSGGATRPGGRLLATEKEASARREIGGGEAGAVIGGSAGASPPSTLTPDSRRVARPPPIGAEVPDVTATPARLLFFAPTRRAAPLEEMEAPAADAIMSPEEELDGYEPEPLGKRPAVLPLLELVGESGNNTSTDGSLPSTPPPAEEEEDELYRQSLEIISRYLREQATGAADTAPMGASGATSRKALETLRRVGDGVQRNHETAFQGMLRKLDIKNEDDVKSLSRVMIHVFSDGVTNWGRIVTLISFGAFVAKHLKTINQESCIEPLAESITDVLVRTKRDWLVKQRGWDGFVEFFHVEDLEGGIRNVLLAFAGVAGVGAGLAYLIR
Source text: Assay 8 Protein-Compound Interaction Assay (SPR Assay)
The ability of the compounds described in this invention to bind to MCL-1 may be determined using surface plasmon resonance (SPR). This allows for the quantification of binding in terms of the equilibrium dissociation constant (KD [M]), as well as association and dissociation rate constants (kon [1/M 1/s] and koff [1/s], respectively). The measurements may be performed using Biacore® T200 or Biacore® S200 instruments (GE Healthcare).
MBP-MCL-1 was diluted in 1×PBS-P+ (GE Healthcare) and injected on the activated chip surface. Subsequently, a solution of 1 M ethanolamine-HCl (GE Healthcare) was injected to block unreacted groups, resulting in approximately 400-2500 response units (RU) of immobilized protein. A reference surface was generated by treatment with NHS-EDC and ethanolamine-HCl.
The double-referenced sensorgrams were fit to a simple reversible Langmuir 1:1 reaction mechanism as implemented in the Biacore® T200 and S200 evaluation software (T200 evaluation software version 2.0 and S200 evaluation software version 1.0, GE Healthcare).

MV-4-11 = assay: Antiproliferation assay 7, MV-4-11; type: cell-based; settings: MV-4-11 cells, 72 hours, CellTiter-Glo; read-out: Antiproli MV-4-11 IC50 median
Method in brief: as §3

BCL-2 = BCL-2 (Homo sapiens (Human), UniProt P10415); assay: Protein-protein interaction assay BCL-2/Bad BH3 peptide (BCL-2 Assay, TR-FRET); type: binding; settings: read-out: BCL-2 Assay IC50 (median)
Sequence of BCL-2 (P10415 other isoform, or with tags, fused parts or gaps): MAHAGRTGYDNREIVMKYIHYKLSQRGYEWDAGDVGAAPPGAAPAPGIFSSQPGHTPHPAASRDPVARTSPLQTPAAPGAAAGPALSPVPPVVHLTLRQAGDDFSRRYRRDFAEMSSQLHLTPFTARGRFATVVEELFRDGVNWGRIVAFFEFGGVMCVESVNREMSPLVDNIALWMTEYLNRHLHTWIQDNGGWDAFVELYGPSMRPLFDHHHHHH
Protocol: The dose-dependent inhibition by the compounds described in this invention of the interaction between BCL-2 and the BH3 domain of Bad (both human) was determined using a steady state binding competition assay with time-resolved fluorescence energy transfer (TR-FRET) readout.
as §1, with “His-BCL-2” for “His-BCL-XL”
The mixture was incubated in the dark for one hour at 22° C. and then overnight at 4° C.
as §2

SUDHL10 [4] = assay: Antiproliferation assay 7, SUDHL10; type: cell-based; settings: SUDHL10 cells, 72 hours, CellTiter-Glo; read-out: Antiproli SUDHL10 IC50 (median)
Method in brief: as §3

SUDHL5 [5] = assay: Antiproliferation assay 7, SUDHL5; type: cell-based; settings: SUDHL5 cells, CellTiter-Glo, read-out: Antiproli SUDHL5 IC50 (median)
Method in brief: as §3

SUDHL10 [6] = assay: Induction of caspase-3/7 activity (Assay 4), SUDHL10; type: cell-based; settings: SUDHL10 cells, 3 hours, Caspase-Glo 3/7; read-out: Caspase SUDHL10 EC50 (median)
Method in brief: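 Luminescent Caspase-Glo 3/7 read-out after a 3 h, 37 °C compound exposure of the DLBCL line SUDHL10. Values are background-corrected using medium-only wells.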

SK-BR-3 = assay: Antiproliferation assay 7, SK-BR-3; type: cell-based; settings: SK-BR-3 cells, 72 hours, CellTiter-Glo; read-out: Antiproli SK-BR-3 IC50 median
Protocol: Assessment of the Anti-Proliferative Effect of Compounds in Different Cell Lines
The impact of compounds on the proliferation of different cell lines was assessed using the CellTiter-Glo® Luminescent Cell Viability reagent from Promega (G7573).
In parallel, cells were plated in a reference (day 0) plate for time zero determination.
Rim wells were excluded. The cells were incubated for 72 hours in a humidified incubator at 37° C. The day 0 plate was measured by adding 30 μL/well of CTG solution (CellTiter-Glo® Luminescent Cell Viability reagent, Promega G7573) to time zero wells in the reference plate followed by a 10 minutes incubation and luminescence reading at 0.1 ms. using the PHERAstar FS microplate reader (BMG Labtech).
After 72 hours incubation, the treated plates were measured in the same way as the day 0 plate mentioned above.

MCL-1 [7] = target: T1, MCL-1; assay: Protein-protein interaction assay MCL-1/Noxa BH3 peptide (MCL-1 Assay, TR-FRET); type: binding; settings: read-out: MCL-1 Assay IC50 (median)
SUDHL5 [8] = assay: Induction of cytotoxicity (Assay 6), SUDHL5; settings: read-out: Cytotox SUDHL5 IC50 (median); SUDHL5 cells, 5 hours, CellTiter-Glo
HMC-1-8 = assay: Antiproliferation assay 7, HMC-1-8; type: cell-based; settings: HMC-1-8 cells, CellTiter-Glo, read-out: Antiproli HMC-1-8 IC50 median
Method in brief: as §3

SUDHL10 [9] = system: SUDHL10
Protocol: as §4, §5, §6

SUDHL5 [10] = system: SUDHL5
[11] = 3 hours, Caspase-Glo 3/7, read-out: Caspase SUDHL5 EC50 (median)

Sequence of BCL-XL (Q07817 other isoform, or with tags, fused parts or gaps): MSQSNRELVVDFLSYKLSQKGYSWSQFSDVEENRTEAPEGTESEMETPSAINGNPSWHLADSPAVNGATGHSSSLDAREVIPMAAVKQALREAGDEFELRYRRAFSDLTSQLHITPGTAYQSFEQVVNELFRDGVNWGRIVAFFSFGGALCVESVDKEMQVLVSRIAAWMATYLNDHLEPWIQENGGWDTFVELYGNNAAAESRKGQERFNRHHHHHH

Row | Compound | IC50 (SUDHL10 [1]) [nM] | IC50 (AMO-1; 72 hours) [nM] | EC50 (SUDHL5 [2]; [11]) [nM] | Kd (MCL-1 [3]) [nM] | IC50 (SUDHL5 [5]; 72 hours) [nM] | EC50 (SUDHL10 [6]) [nM] | IC50 (MCL-1 [7]) [nM] | IC50 (SUDHL5 [8]) [nM] | IC50 (HMC-1-8; 72 hours) [nM] | also measured
1 | 4-chloro-3-ethyl-1-[2-(morpholin-4-yl)ethyl]-7-[3-(naphthalen-1-yloxy)propyl]-1,10,11,12,13,15-hexahydropyrazolo[4′,3′:9,10][1,6]oxazacycloundecino[8,7,6-hi]indole-8-carboxylic acid-N-ethylethanamine Salt (Enantiomer 1) [Example 9] | 340 | 874 | 270 | 1.1 | 370 | 330 | 0.47 | 290 |  | IC50 (BCL-XL): > 20000 nM; koff (geo mean) (MCL-1 [3]): 0.0096 s⁻¹; kon (geo mean) (MCL-1 [3]): 8.7E6 1/M 1/s; IC50 (MV-4-11): 823 nM; IC50 (BCL-2): > 20000 nM; IC50 (SUDHL10 [4]): 270 nM; IC50 (SK-BR-3): 1080 nM
2 | Cc1c2c(nn1C)N(C)CCCCCn1c(C(=O)O)c(CCCOc3cccc4ccccc34)c3ccc(Cl)c-2c31 (single isomer, unassigned) [Example 72, (+)-4-chloro-2,3,15-trimethyl-7-{3-[(naphthalen-1-yl)oxy]propyl}-10,11,12,13,14,15-hexahydro-2H-pyrazolo[4′,3′:4,5][1,6]diazacycloundecino[3,2,1-hi]indole-8-carboxylic acid] | 1600 | 1700 | 700 | 11 |  | 1900 | 0.96 | 880 |  | koff (MCL-1 [3]; read-out: koff (geo mean)): 0.016 s⁻¹; kon (MCL-1 [3]; read-out: kon (geo mean)): 1.4e+06 M⁻¹ s⁻¹; IC50 (SUDHL5 [5]; Homo sapiens, SU-DHL-5, 72 h): 1200 nM; IC50 (HMC-1-8; 72 h): 19000 nM
3 | Cc1c2c(nn1C)CN(C)CCCCn1c(C(=O)O)c(CCCOc3cccc4cc(F)ccc34)c3ccc(Cl)c-2c31 (single isomer, unassigned; enantiomer 1) [Example 31, (+)-4-chloro-7-{3-[(6-fluoronaphthalen-1-yl)oxy]propyl}-2,3,14-trimethyl-10,11,12,13,14,15-hexahydro-2H-pyrazolo[3′,4′:8,9][1,6]diazacycloundecino[10,11,1-hi]indole-8-carboxylic acid-N-ethylethanamine Salt (Enantiomer 1)] | 82 | 174 | 55 | 0.43 | 53 | 65 | 0.71 | 53 | 1920 | IC50 (MV-4-11): 275 nM
4 | Cc1c2c(nn1CCCN1CCN(C)CC1)COCCCCn1c(C(=O)O)c(CCCOc3cccc4ccccc34)c3ccc(Cl)c-2c31 (single isomer, unassigned; enantiomer 1) [Example 49, (+)-4-chloro-3-methyl-2-[3-(4-methylpiperazin-1-yl)propyl]-7-{3-[(naphthalen-1-yl)oxy]propyl}-2,10,11,12,13,15-hexahydropyrazolo[4′,3′:9,10][1,6]oxazacycloundecino[8,7,6-hi]indole-8-carboxylic Acid (Enantiomer 1)] | 620 | 1340 | 520 | 1.7 | 480 | 450 | 0.75 | 660 | 3060 | 
5 | Cc1c2c(nn1C)COCC1CC1Cn1c(C(=O)O)c(CCCOc3cccc4ccccc34)c3ccc(Cl)c-2c31 (single isomer, unassigned; stereoisomer 1) [Example 65, (9aS,10aR or 9aR, 10aS)-3-chloro-4,5-dimethyl-14-{3-[(naphthalen-1-yl)oxy]propyl}-5,7,9a, 10,10a, 11-hexahydro-9H-cyclopropa[3,4]pyrazolo[4′,3′:9,10][1,6]oxazacycloundecino-[8,7,6-hi]indole-13-carboxylic Acid—Stereoisomer 1] | 400 |  |  | 3.6 |  | 570 | 0.92 | 410 | 7580 | IC50 (AMO-1; Homo sapiens, AMO1, 72 h): 1420 nM; EC50 (SUDHL5 [2]; Homo sapiens, SU-DHL-5, 3 h, Caspase-Glo 3/7, read-out: Caspase SUDHL5 EC50 (median)): 410 nM
6 | Cc1nn(C)c2c1-c1cccc3c(CCCOc4cccc5ccccc45)c(C(=O)O)n(c13)CCCCN2Cc1ccccc1 [Example 69, (rac)-8-benzyl-9,11-dimethyl-1-[3-(1-naphthyloxy)propyl]-4,5,6,7,8,9-hexahydropyrazolo[4′,3′:4,5][1,6]diazecino[3,2,1-hi]indole-2-carboxylic Acid] |  |  | > 33000 |  | 14000 | 22000 | 350 |  |  | IC50 (SUDHL10 [9]): 32000 nM; IC50 (SUDHL5 [10]): 21000 nM; IC50 (SUDHL10 [4]): 6300 nM
7 | (rac)-4-chloro-14-(2,2-difluoroethyl)-3-ethyl-7-{3-[(6-fluoronaphthalen-1-yl)oxy]propyl}-2-methyl-10,11,12,13,14,15-hexahydro-2H-pyrazolo[3′,4′:8,9][1,6]diazacycloundecino[10,11,1-hi]indole-8-carboxylic Acid [Example 62] |  |  | 270 |  |  |  | 2.7 |  |  | IC50 (SUDHL5 [10]): 330 nM
